Measured values published in PubChem BioAssay AID1949 (Southern Research Institute, 2009).
In brackets after ≈: the same amount, converted by molar mass. Inconclusive results are not listed. Activity calls are given as the source filed them. The rule behind the calls is not given here.

System: M. tuberculosis H37Rv growth inhibition
Experiment: Confirmatory growth inhibition assay against Mycobacterium tuberculosis H37Rv, potency (AID 1949);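 note: bacteria grown 7 days with compound before Alamar blue readout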

SMILES	IC50
CN(C)c1ccc(Nc2ncnc3ccc(Br)cc23)cc1	1.08 µg/mL (≈ 3.15 µM)
CCOC(=O)c1ccc(NC(=S)Nc2cc(Cl)c(Cl)cc2Cl)cc1	2.72 µg/mL (≈ 6.74 µM)
O=C(CC1(O)C(=O)N(CCc2ccccc2)c2ccc(Cl)cc21)c1ccncc1 (configuration not stated)	6.03 µg/mL (≈ 14.8 µM)
COc1ccc(Cc2nc3sc4c(c3c(=O)n2N)CCCC4)cc1	> 50 µg/mL (inactive)
COC(=O)c1ccc(COC(=O)c2ccccc2OC)cc1	2.87 µg/mL (≈ 9.56 µM)
CC(C)C(=O)N1CCN(c2ccc(NC(=O)c3ccc([N+](=O)[O-])o3)cc2)CC1	0.21 µg/mL (≈ 0.543 µM)
O=C(Nc1ccccc1Br)c1ccc([N+](=O)[O-])o1	1.61 µg/mL (≈ 5.18 µM)
FC(F)(F)c1ccccc1Nc1nc(-c2ccccn2)cs1	< 0.1 µg/mL
Cc1ccc(CSCC(=O)Nc2ccc(Cl)c(Cl)c2)cc1	3.06 µg/mL (≈ 8.99 µM)
C=CCOc1c(Cl)cc(/C=C/[N+](=O)[O-])cc1OCC	23.4 µg/mL (≈ 82.5 µM)
Cc1occc1C(=O)Nc1sc(Cc2ccccc2)cc1C(N)=O	> 50 µg/mL (inactive)
COC(=O)COc1cc2oc(=O)cc(-c3ccccc3)c2cc1Cl	29 µg/mL (≈ 84.1 µM)
Cc1ccc(NC(=O)C(=O)NNC(=O)c2ccco2)cc1Cl	1.41 µg/mL (≈ 4.38 µM)
CCCOc1ccc(C2Oc3ccc(Br)cc3C=C2[N+](=O)[O-])cc1OC (configuration not stated)	1.48 µg/mL (≈ 3.52 µM)
COc1ccc2nc(Nc3nc(C)c(C)c(=O)[nH]3)nc(C)c2c1	> 50 µg/mL (inactive)
CN1CCN(c2ccc(NC(=O)c3cccc(I)c3)cc2)CC1	> 50 µg/mL (inactive)
CC(C)(C)c1ccc(OCCCNCc2ccccc2)cc1	4.84 µg/mL (≈ 16.3 µM)
O=C(N=Nc1c(O)[nH]c2ccccc12)c1ccc(Cl)cc1	46.7 µg/mL (≈ 156 µM)
c1ccc(CCN(Cc2ccccc2)C2CCN(Cc3c[nH]c4ccccc34)CC2)cc1	2.91 µg/mL (≈ 6.87 µM)

SMILES	IC50
CC(=O)Oc1cccc2ccc(/C=C/c3cccs3)nc12	1.14 µg/mL (≈ 3.86 µM)
O=c1c(Cl)c(Cl)cnn1Cc1ccccc1Cl	9.65 µg/mL (≈ 33.3 µM)
CCOC(=O)Cc1nc2cc(Cl)ccc2o1	10.4 µg/mL (≈ 43.5 µM)
Cc1ccc(C)c(OCC(=O)Nc2ccc(C(=O)OC(C)C)cc2)c1C	3.77 µg/mL (≈ 10.6 µM)
Cc1cccc(C)c1OCC(=O)N/N=C/c1ccc(O)c([N+](=O)[O-])c1	0.36 µg/mL (≈ 1.05 µM)
O=C(NC(=S)Nc1ccccc1N1CCCC1)c1cccc2ccccc12	0.36 µg/mL (≈ 0.959 µM)
CC(C)(C)c1ccc(OCCn2c(N)nc3ccccc32)cc1	1.61 µg/mL (≈ 5.2 µM)
COc1ccc(-c2csc(Nc3ncccc3C)n2)cc1	24.5 µg/mL (≈ 82.5 µM)
CCOC(=O)c1c(-c2cccs2)csc1NC(=O)c1cc2ccccc2oc1=O	4.76 µg/mL (≈ 11.2 µM)
CCN1CCN(c2ccc([N+](=O)[O-])c(-n3nc(-c4ccc(Cl)cc4)c4ccccc4c3=O)c2)CC1	5.6 µg/mL (≈ 11.4 µM)
O=C(Nc1nc(SCc2ccc(F)cc2)ns1)c1cc(F)c(F)cc1Cl	2.35 µg/mL (≈ 5.65 µM)
Cc1sc2ncn(C(C)C(=O)OC3CCCCC3)c(=O)c2c1C (configuration not stated)	1.11 µg/mL (≈ 3.32 µM)
CC1(C)CC(=O)C2=C(C1)NC1=C(C(=O)c3ccccc31)C2c1ccc(C(F)(F)F)cc1 (configuration not stated)	30.3 µg/mL (≈ 71.7 µM)
Cc1cc(Nc2ccc(Cl)cc2)nc(NCc2ccccc2)n1	1.34 µg/mL (≈ 4.13 µM)
CC(C)(C)c1ccc(C(=O)Nc2cccc(NC(=O)c3cccs3)c2)cc1	2.28 µg/mL (≈ 6.02 µM)
CCc1ccc(O)c(NC(=S)NC(=O)c2cccc3ccccc23)c1	0.16 µg/mL (≈ 0.457 µM)
Cc1ccc(OCC(O)CN2CCN(CC(O)COc3ccc(C)cc3C)CC2)c(C)c1 (configuration not stated)	3.27 µg/mL (≈ 7.39 µM)
CN(C)c1ccc(CNC23CC4CC(CC(C4)C2)C3)cc1	1.43 µg/mL (≈ 5.03 µM)
COC(=O)COc1ccc(NC(=O)c2ccc(-c3ccccc3)cc2)cc1	< 0.1 µg/mL

SMILES	IC50
CCCCNCCOCCOc1ccc(Cl)cc1C(C)(C)C	4.33 µg/mL (≈ 13.2 µM)
O=C(CCN1C(=O)c2ccccc2C1=O)Oc1cccc2cccnc12	2.78 µg/mL (≈ 8.03 µM)
O=C(Nc1cccc([N+](=O)[O-])c1)Nc1ccc(Cl)c(C(F)(F)F)c1	0.19 µg/mL (≈ 0.528 µM)
O=C(CC1CCCCC1)c1c(O)c2ccccc2oc1=O	> 50 µg/mL (inactive)
CCc1ccccc1NC(=O)c1cc2cc([N+](=O)[O-])cc(OC)c2oc1=O	> 50 µg/mL (inactive)
CC(C)(C)c1cc(Cl)c(O)c(NC(=S)NC(=O)c2cccc3ccccc23)c1	< 0.1 µg/mL
COc1cccc(NC(=O)CSc2ccc(Br)cc2)c1	11.7 µg/mL (≈ 33.2 µM)
C#CCSc1nnc(-c2ccc([N+](=O)[O-])cc2)o1	< 0.1 µg/mL
N#Cc1cc2c(nc1SCC(=O)OCc1ccccc1)CCC2	0.41 µg/mL (≈ 1.26 µM)
COc1ccc2c(c1)CC1=C2CCC2(C)C1=CCC2OC(C)=O (configuration not stated)	21.6 µg/mL (≈ 69.8 µM)
Cc1cccc(OCc2nnc(SCC(=O)NCCc3ccccc3)o2)c1	0.46 µg/mL (≈ 1.2 µM)
CCc1cc(I)ccc1NC(=O)c1ccc([N+](=O)[O-])o1	1.61 µg/mL (≈ 4.17 µM)
COc1ccc(CCCC(=O)Nc2ccc(Cl)c(Cl)c2)c(C)c1	8.81 µg/mL (≈ 25 µM)
COc1cc(C=O)ccc1OC(=O)c1cccs1	4.13 µg/mL (≈ 15.7 µM)
Cc1cc(C)c2c(c1)c(-c1ccccc1)c(-c1ccccc1)n2CC(O)CN1CCN(CCO)CC1 (configuration not stated)	3.02 µg/mL (≈ 6.24 µM)
CCc1cc2c(=O)oc(-c3ccc(F)cc3)nc2s1	> 50 µg/mL (inactive)
N#Cc1ccc(NC(=O)C23CC4CC(CC(C4)C2)C3)cc1	23.7 µg/mL (≈ 84.6 µM)
N#Cc1ccccc1-c1ccc(/C=C/[N+](=O)[O-])o1	> 50 µg/mL (inactive)
Cc1ccc2[nH]c3c(c2c1)CCCC3NCC(O)Cc1ccccc1 (configuration not stated)	6.03 µg/mL (≈ 18 µM)
